# Patent US12668797B2, “Compositions and methods for treating chronic myelomonocytic leukemia” (H. Lee Moffitt Cancer Center and Research Institute, Inc., priority 2019, dated 2026)
# Key:
# THP-1 cells = experiment: Differentiation of THP-1 MALAT1 CRISPR KO cells (CD11b/CD14); type: cell-based, human; conditions: MALAT1 depleted THP-1 versus control; ATRA 1 μM for 96 h (FIG. 7C)
# Description: To confirm that MALAT1 depletion could induce differentiation in human models of leukemia, MALAT1's major transcriptional start site was deleted via CRISPR/Cas9 as previously described in several single cell derived clones of the THP-1 cell line. THP-1 cells were chosen because they were derived from a patient with acute monocytic leukemia, they harbor an NRAS mutation, and they had the highest levels of MALAT1 in our screen of myeloid cell lines.
# [1] = tested on: acute promyelocytic leukemia (APL); conditions: ATRA based therapy in APL; cited from earlier work
# [2] = tested on: myelomonocytic leukemia cell lines; experiment: Apoptosis in myelomonocytic leukemia cell lines; type: cell-based, human
# THP-1 xenografts = experiment: THP-1 MALAT1 KO / WT xenografts treated with ATRA; type: in vivo, mice
# Description: Multiple MALAT1 depleted THP-1 leukemia cell line clones have been generated utilizing dual sgRNA-targeted CRISPR technology and partnered with IONIS pharmaceuticals to test clinical grade MALAT1 ASOs in a panel of cell lines. These reagents were used to evaluate the effects of MALAT1 depletion on the above cellular processes to include proliferation, cell cycle, and differentiation. […] Additionally, these models were used to test the impact of MALAT1 depletion on normal and leukemic stem cell self-renewal capacity as well as rigorously interrogated the numbers of hematopoietic stem and progenitor cells upon MALAT1 depletion. Leukemia human cell line xenograft models were used to test the in vivo consequence of MALAT1 depletion with the above CRISPR generated clones.
# Differentiation syndrome is a common serious adverse event in human leukemia patients treated with differentiating agents. It is primarily characterized by an inflammatory reaction often a result of differentiated myeloid cells accumulating in target organs, especially the lungs.
# [3] = tested on: NRAS^Q61R/+ and NRAS^Q61R/+/MALAT1^KO/KO transplanted mice; experiment: ATRA treatment of primary transplants from NRAS Q61R/+ GEM model of CMML; type: in vivo; conditions: ATRA intraperitoneally
# Description: To validate the differentiation effect in vivo primary transplants were generated from NRAS^Q61R/+/MALAT1^KO/KO and NRAS^Q61R/+ followed by treatment with ATRA. […] Differentiation syndrome is a treatable but potentially fatal complication of approved therapies which induce differentiation in myeloid neoplasms hallmarked by increases in myeloid cell adhesion, invasion, and ultimately lung infiltration. There was a higher proportion of terminally differentiated cells in the lungs of NRAS^Q61R/+/MALAT1^KO/KO mice compared to controls (FIG. 8B). Further, MALAT1 depleted THP-1 cells had increased adhesion and endothelial migration compared to controls consist with an increased potential for differentiation syndrome (FIG. 8C).
# CMML patients = conditions: 10 CMML patients, 45mg/m^2 of ATRA daily; cited from earlier work
# human leukemic cells = experiment: Differentiation markers CD11b and CD14 by flow cytometry in human leukemic cells; type: cell-based; conditions: stimulated cells, MALAT1 depleted versus control cells
Compound,response of differentiation markers (THP-1 cells),cure rates [1] [%],dose-dependent apoptosis ([2]; ATRA alone),apoptosis ([2]; ATRA in combination with MALAT1 depletion),"induction of apoptosis following ATRA treatment ([2]; FIG. 2, ATRA treatment)","differentiation syndrome (THP-1 xenografts; ATRA treated MALAT1 KO NSG xenografts, FIG. 1)","survival of xenografted mice (THP-1 xenografts; MALAT1 depleted xenografts treated with ATRA, pilot experiment)",survival of xenografted mice (THP-1 xenografts; WT xenografts treated with ATRA),differentiation markers (Gr-1/Mac-1) [3],patients who developed differentiation syndrome (CMML patients) [patients],patients who succumbed to differentiation syndrome (CMML patients) [patients],patients with improvement in transfusion requirements (CMML patients),differentiation markers CD11b and CD14 by flow cytometry upon stimulation (human leukemic cells)
"CC1=C(/C=C/C(C)=C/C=C/C(C)=C/C(=O)O)C(C)(C)CCC1 [ATRA, all-trans retinoic acid]",more robust response,~95,did not cause a robust dose-dependent apoptosis,induced apoptosis in a dose-dependent manner,minimal induction of apoptosis,evidence of differentiation syndrome,succumbed one-week post-ATRA therapy,remained unaffected,statistically significant differences,2,1,four,enhanced
"CCCCCCCCCCCCCC(=O)O[C@@H]1[C@@H](C)[C@@]2(O)[C@@H](C=C(CO)C[C@]3(O)C(=O)C(C)=C[C@@H]23)[C@@H]2C(C)(C)[C@]12OC(C)=O [PMA, phorbol myristate acetate]",more robust response,–,–,–,–,–,–,–,–,–,–,–,enhanced
